Experimental data: patent US20110256121A1, “METHODS AND KITS FOR DIAGNOSING OR MONITORING AUTOIMMUNE AND CHRONIC INFLAMMATORY DISEASES” (THE REGENTS OF THE UNIVERSITY OF MICHIGAN, priority 2008, published 2011)

What was measured:
Type in all cases: cell-based, human
[1] = tested on: KIR2DL4 promoter; experiment: KIR2DL4 promoter methylation, bisulfite sequencing and MS-PCR
Description: Bisulfite conversion and DNA sequencing. Genomic DNA was isolated from T cells using FlexiGene DNA Kits (QIAGEN) then treated with sodium bisulfite as described (15). HotStar Taq (QIAGEN) was used for amplification with the following conditions: initial incubation 95° C. 15 min, then 45 cycles 95° C. 30 s, 52° C. 30 s and 72° C. 30 s. PCR products were purified using QIAEXII Gel Extraction Kits (QIAGEN), and cloned using the pGEM-T Easy Vector System (Promega, Madison, Wis.). 10 cloned fragments were sequenced for each sample by the University of Michigan Sequencing Core.
Real-time quantitative methylation specific PCR (MSP). Three real-time MSP assays were developed for detection and quantitation of each KIR gene: one specific for the bisulfite-converted methylated sequence, one for the bisulfite-converted unmethylated sequence, and a loading control comprising primers to an adjacent bisulfite-converted sequence lacking CG pairs. MSP reactions were performed using QuantiTect SYBR Green PCR kits (QIAGEN) according to the manufacture's protocol using […] of each primer, 100 ng converted DNA and the Rotor-Gene 3000. […] Levels of amplified methylated and unmethylated fragments were standardized to the control fragment, and the methylation index calculated as […]

[2] = tested on: KIR2DL4 promoter; experiment: KIR2DL4 promoter reporter construct assay in T cells
Description: Reporter construct assays. Amplified KIR promoter fragments were subcloned into the EcoRI site of the promoterless pmaxFP-Yellow-PRL vector (Amaxa GmbH). Plasmids were purified using QIAGEN EndoFree Plasmid Kits (QIAGEN), and 2 μg of DNA transfected into untreated or 5-azaC treated human T cells using the human T cell nucleofector kit (Amaxa GmbH) and the manufacturer's protocol. Controls included cotransfection with pmaxGFP (Amaxa GmbH) and transfection with the promoterless reporter vector. Fluorescence was measured by flow cytometry. Site directed mutagenesis. Mutations were introduced into the same pmaxFP-Yellow-PRL KIR2DL2 and KIR2DL4 promoter constructs using the QuickChange Multi Site-Directed Mutagenesis Kit (Stratagene, La Jolla, Calif.). The changes include a […]→[…] mutation at −78→−71 in the Sp1 site, a CCC→ACA mutation at −61→−59 in the Ets1 site, or both, in the KIR2DL2 promoter, and a TTT→GGG mutation at −73→−71 in the Ets1 site, a CCC→ACA mutation at −61→−59 in the Ets1 site, or both, in the KIR2DL4 promoter. A separate G→A mutation in the AML site was also introduced into both promoters at −98 (16; 17). The constructs were transfected in to PHA stimulated, 5-azaC treated T cells as above. Controls included transfection with pmaxGFP.
Effects of 5-azaC on KIR transcriptional activator-DNA interactions. […]

[3] = tested on: KIR2DL4; experiment: KIR2DL4 expression on T cells by flow cytometry; conditions: 5-azaC 72 h, p<0.001 for both
Description: T cell purification and culture. Peripheral blood mononuclear cells (PBMC) were isolated from healthy donors by density gradient centrifugation, stimulated for 18 hours with 1 μg/mlphytohemagglutinin (PHA) (Murex, Norcross, Ga.), then treated or not with 5 μm 5-azacytidine (5-azaC, Sigma, St. Louis, Mo.) for 72 hours as described (6). Total T cells, CD4^+ T cells or CD8′ T cells then were purified using the pan T cell isolation kit II or the CD4^+ and CD8^+ T cell isolation kit II from Miltenyi (Auburn, Calif.). T cells were typically >94% CD3^+ by flow cytometry. Jurkat cells (E6-1) were maintained in culture as described (11). This protocol was approved by the University of Michigan Institutional Review Board.
Flow Cytometric Analysis. The following monoclonal antibodies were used: CYC-anti-CD3, FITC-anti-CD8, CYC-anti-CD4, FITC-anti-CD28, CYC-mouse IgG1 and FITC-mouse-IgG1 (all from BD PharMingen, San Diego, Calif.). Anti-CD158b1/b2, j-PE (GL183, reactive with KIR 2DL2/2DL3/2DS2) was obtained from Beckman Coulter Immunotech (Buckinghamshire, UK), anti-CD158d-PE (anti-KIR2DL4) from R&D Systems (Minneapolis, Minn.), and PE-mouse-IgG2A from Abcam (Cambridge Mass.). Cell staining and fixation were performed as described (2; 6), and cells analyzed using a FACSCalibur flow cytometer (BD Biosciences, Franklin Lakes, N.J.).

Nc1ncn([C@@H]2O[C@H](CO)[C@@H](O)[C@H]2O)c(=O)n1 [5-azaC, 5-azacytidine]
KIR2DL4 promoter methylation pattern, bisulfite sequencing ([1]; CD4+ and CD8+ cells, 5-azaC treated vs untreated): generalized demethylation in the treated cells
KIR2DL4 promoter methylation index, MS-PCR ([1]; CD4+ and CD8+ subsets, p<0.001): demethylates these regions in all 5 subjects
increase of KIR2DL4 promoter function ([2]; 5-azaC treated vs untreated T cells, FIG. 29b, p<0.005): 3-4 fold
increase of expression of the unmodified KIR2DL4 construct ([2]; relative to untreated T cells, FIG. 29c): ~3 fold
KIR2DL4 expression on CD4+ and CD8+ T cells [3]: induces KIR2DL4 expression on CD4+ and CD8+ T cells
